The values that follow come from article PMC10580953, “In vitro and intracellular activities of novel thiopeptide derivatives against macrolide-susceptible and macrolide-resistant Mycobacterium avium complex” (Microbiology Spectrum, 2023).

≈ marks a conversion by molar mass, not a printed value. Entries after “also recorded” stand apart in the source; their conditions may differ.

Data set [1] deals with MAC in murine BMDMs. Also noted: method as in PMID 33519787. The note with it: cited from earlier work.
Data set [2] in a line: Aqueous kinetic solubility. The note with it: for solubility at 2 h: aqueous buffer, kinetic from dmso stock, free form, deionized water pH 7.4, 1% DMSO. It is filed as physicochemical. As for the experimental part: The aqueous kinetic solubility was determined by preparing a 20 mM DMSO stock solution of test compounds and incubating an aliquot of this solution in deionized water at pH 7.4 to set a 1% final concentration of DMSO. In the case of HCl salt compounds, 1–2 mg of compound was weighed and dissolved in deionized water to yield an approximately 10 mg/mL solution. After initial mixing using brief vortexing and sonication, samples were equilibrated by shaking for 2 h at room temperature. Suspensions or solutions with visible particles were filtered through 0.22 µm PVDF membrane filters. The dissolved drug concentration was analyzed using UPLC-MS. To determine the solubility of the HCl salt, 1 mg of compound was weighed into a 2 mL glass tube, and a fixed volume of deionized water was added to yield an approximately 10 mg/mL solution. The solution was equilibrated by shaking for 24 h at room temperature. After equilibration, the vials were visually examined. If a clear solution was obtained, solubility was reported as >mg/mL.

In data set [3] the test system is MAC in murine BMDMs. Description: Intracellular anti-MAC activity in infected BMDMs, summary statements for MAC. The format is cell-based, Mycobacterium avium complex. The settings on record: for intracellular growth of MAC in BMDMs: MAC-infected BMDMs, 72 h (Fig. 2). The protocol:
(§1) BMDMs were obtained from 6-week-old female BALB/c mice. Bone marrow cells were differentiated into BMDMs using Dulbecco’s Modified Eagle Medium (Biowest) supplemented with 10% fetal bovine serum (Biowest) and 10% L929 cell supernatant as previously described ([58]).
(§2) BMDMs were seeded at 4 × 10^5 cells/mL in a 48-well plate and incubated overnight at 37°C. MAC strains were infected at a multiplicity of infection of 3 for 4 h and washed with DPBS twice. The cells were then cultured in the absence or presence of drugs in triplicate wells for 72 h. After incubation, the cells were lysed with 0.05% Triton X-100, and the cell lysates serially diluted with DPBS were spotted on 7H10 agar plates supplemented with OADC to count the number of viable bacteria. Colonies were enumerated after 7 d of incubation at 37°C, and the values are reported as the mean CFU ± standard deviation (SD) per mL. All experiments were repeated at least three times independently.

Data set [4] has as its system macrolide-resistant M. avium clinical isolates in BMDMs. Kind of data set: Intracellular activity in BMDMs, macrolide-resistant M. avium clinical isolates. The format is cell-based, Mycobacterium avium. The note with it: five macrolide-resistant M. avium clinical isolates, 10 µg/mL, 72 h (Fig. 5). The protocol: as §1, §2
Data set [5] deals with M. avium ATCC 700898. The note with it: synergism FICI ≤0.5, additive 0.5 < FICI ≤ 1, indifferent 1 < FICI ≤ 4, antagonistic FICI >4. As for the experimental part: (§3) To evaluate the efficacy of the combination of agent A and agent B, a fractional inhibitory concentration (FIC) index was calculated as follows: FICI = (FIC of agent A) + (FIC of agent B) = (MIC of agent A in combination/MIC of agent A alone) + (MIC of agent B in combination/MIC of agent B alone). Synergism is defined as FICI ≤0.5, additive as 0.5 < FICI ≤ 1, indifferent as 1 < FICI ≤ 4, and antagonistic as FICI >4. The cultured bacteria were diluted to a 0.005 OD600 in 7H9 broth containing 5% OADC, and the antimicrobial agents were prepared by serial dilutions to a final concentration of 0.03–4 μg/mL. For the evaluation of inhibitory concentrations, the plates were incubated at 37°C for 5–7 d. Then, MIC values were assessed by REMA, and the FICI was calculated.

The test system of data set [6] is M. intracellulare ATCC 13950. The settings on record: synergism FICI ≤0.5, additive 0.5 < FICI ≤ 1, indifferent 1 < FICI ≤ 4, antagonistic FICI >4. As for the experimental part:
as §3

Data set [7] has as its system BMDMs. Kind of data set: Cell cytotoxicity test (trypan blue cell counting). The note with it: 20 µg/mL, overnight incubation (Fig. S4). The format is cell-based, BALB/c mice. The protocol: as §1
Cell viability was evaluated using trypan blue cell counting. BMDMs were plated at 4 × 10^5 cells/mL along with antibiotics in a 48-well cell culture plate. The antibiotics were serially diluted twofold from the highest concentration of 20 μg/mL to 1.25 μg/mL. After overnight incubation at 37°C with 5% CO2, BMDMs were isolated, and viable cells were counted using trypan blue dye exclusion. Cell viability was calculated as a percentage compared to the control. All experiments were repeated at least three times independently.

For data set [8], the system named is macrolide-resistant M. avium. Description: MIC by REMA, macrolide-resistant M. avium strains.
Text: (§4) Reference strains were purchased from the American Type Culture Collection (ATCC; Manassas, VA, USA). All clinical MAC isolates, including macrolide-susceptible and macrolide-resistant strains, were kindly provided by Samsung Medical Center (SMC; Seoul, South Korea) and Asan Medical Center (AMC; Seoul, South Korea). All strains were cultivated in Middlebrook 7H9 liquid broth (Difco Laboratories, Detroit, MI) supplemented with 10% oleic acid-albumin-dextrose-catalase (OADC) or plated on Middlebrook 7H10 agar (Difco Laboratories) with 10% OADC enrichment at 37°C.
(§5) The MICs of all the reagents were determined using the REMA method based on guidelines by the Clinical and Laboratory Standards Institute ([57]). […] The cultures were diluted to an OD600 = 0.001 in 7H9 broth with 5% OADC. […] Two controls (broth only and bacteria only) were incubated to check for other contamination (broth only) and the growth of tested bacteria (bacteria only).
(§6) PCR amplification and sequencing for CLR were based on 23S rRNA. The primers and PCR conditions were as reported previously ([59]). PCR was carried out in a final volume of 20 µL and contained EzPCR Basic 5 × premix (ELPIS, Daejeon, South Korea), 13 µL of sterile dH2O, 1 µL of each forward and reverse primer, and 1 µL of template DNA. The PCR products were run on 1% agarose gels and purified using a NEXprep Gel/PCR Purification Mini Kit (Geneslabs, Gyeonggi, South Korea) for DNA cleanup. Purified PCR products were sequenced by Sanger sequencing in Bionics (Seoul, South Korea) with their gene-specific forward and reverse primers. Sequences obtained from Bionics were subjected to BLAST searches to compare nucleotide sequences with reference strains.
The test system of data set [9] is M. avium. Kind of data set: MIC by resazurin microtiter assay (REMA), M. avium strains. For orientation: Alamar Blue is a resazurin reagent that responds to reducing activity.
Experimental: (§7) Reference strains were purchased from the American Type Culture Collection (ATCC; Manassas, VA, USA). […] All strains were cultivated in Middlebrook 7H9 liquid broth (Difco Laboratories, Detroit, MI) supplemented with 10% oleic acid-albumin-dextrose-catalase (OADC) or plated on Middlebrook 7H10 agar (Difco Laboratories) with 10% OADC enrichment at 37°C.
as §5
For data set [10], the system named is macrolide-resistant M. intracellulare. Kind of data set: MIC by REMA, macrolide-resistant M. intracellulare strains. The note with it: Mycobacterium intracellulare.
Text: as §4, §5, §6
The subject of data set [11] is M. intracellulare. Kind of data set: MIC by resazurin microtiter assay (REMA), M. intracellulare strains.
Experimental: as §7, §5
In data set [12] the test system is MAC strains. Kind of data set: MIC by REMA, summary statements for MAC strains. The format is cell-based, Mycobacterium avium complex. The settings on record: Mycobacterium avium; range over tested MAC strains (Table 2); read-out: in vitro MIC for the tested MAC strains.
Data set [13] has as its system M. avium in murine BMDMs. Description: Intracellular anti-MAC activity in infected BMDMs, M. avium. It is filed as cell-based, Mycobacterium avium. The settings on record: M. avium ATCC 700898, 10 µg/mL, 72 hr. The protocol: as §1, §2
Data set [14] deals with M. intracellulare in murine BMDMs. Description: Intracellular anti-MAC activity in infected BMDMs, M. intracellulare. The format is cell-based, Mycobacterium intracellulare. The note with it: M. intracellulare ATCC 13950, 10 µg/mL, 72 hr. As for the experimental part:
as §1, §2

The mark [15] stands for this setting: Mycobacterium avium, ATCC700898.
Setting [16] is: Mycobacterium intracellulare, ATCC13950, M. intracellulare (ATCC 13950), reference strain.
[17] abbreviates: Mycobacterium intracellulare, M. intracellulare (SMC#8).
The mark [18] stands for this setting: Mycobacterium intracellulare, M. intracellulare (SMC#12).
The mark [19] stands for this setting: Mycobacterium intracellulare, M. intracellulare (SMC#699).

For `CO[C@H]1/C=C/O[C@@]2(C)Oc3c(C)c(O)c4c(O)c(c(/C=N/N5CCN(C)CC5)c(O)c4c3C2=O)NC(=O)/C(C)=C\C=C\[C@H](C)[C@H](O)[C@@H](C)[C@@H](O)[C@@H](C)[C@H](OC(C)=O)[C@@H]1C` [rifampicin], the “intracellular activity against MAC” value in [1] is “little intracellular activity”.
In the case of `C/C=C1\NC(=O)[C@H]([C@@H](C)O)NC(=O)c2csc(n2)-c2ccc(-c3nc(-c4nc(C(=O)NC5(C(=O)NCCCN6CCOCC6)CC5)cs4)cs3)nc2-c2csc(n2)[C@H]([C@@H](C)O)NC(=O)c2csc(n2)[C@H](C(C)C)NC(=O)c2csc1n2` [AJ-037], in data set [2], the concentration in solution (solubility at 2 h) was 103 µg/mL (≈ 84.9 µM). Moreover, the “Fold increase, HCl salt” value in [2] (solubility of HCl salt compared to MP2) is reported as “×71,428 fold”. Besides, in [2] (solubility of free form compared to MP2), the “Fold increase, Free form” value is “×1,471 fold”. Besides, in [2] (thermodynamic from solid, HCl salt in deionized water), the solubility (as a rule, the dissolved amount per volume that the medium holds) amounted to 5000 µg/mL. Moreover, in data set [3], the “intracellular growth of MAC in BMDMs” value is “remarkably inhibited the intracellular growth of MAC to a similar degree as CLR; also recorded: significantly reduced the number of MAC CFUs inside macrophages”. In [3] (macrolide-resistant MAC, 10 µg/mL, 72 h (Fig. 5 and 6)), the “intracellular activity in BMDMs infected with macrolide-resistant MAC clinical isolates” value is recorded as “significant decrease in CFUs”. The “intracellular bacterial growth in BMDMs” value in [4] is “notably inhibited intracellular bacterial growth”. In addition, the “drug-drug interaction with CLR” value in [5] is “strongest synergistic effect; also recorded: Synergistic effects”; in [6], “relatively weak but synergistic effect; also recorded: Synergistic effects”. In addition, the Cell viability result in data set [7] is “decreased”. Moreover, the MIC (commonly the lowest concentration found to suppress growth) in data set [8] (M. avium (SMC#1216), 23S rRNA A2058/A2059 C/A) stood at 0.125 µg/mL (≈ 0.103 µM); in data set [8] (Mycobacterium avium), 0.125 µg/mL (≈ 0.103 µM); in [8] (Mycobacterium avium, M. avium (SMC#420), 23S rRNA A2058/A2059 C/A), 0.5 µg/mL (≈ 0.412 µM); in [8] (Mycobacterium avium, M. avium (SMC#422), 23S rRNA A2058/A2059 A/G), 1 µg/mL (≈ 0.824 µM); in data set [8] (Mycobacterium avium, M. avium (SMC#1213), 23S rRNA A2058/A2059 T/A), 0.5 µg/mL (≈ 0.412 µM); in data set [9] (M. avium (SMC#7)), 0.25 µg/mL (≈ 0.206 µM). The minimal inhibitory concentration (MIC) in data set [9] (Mycobacterium avium) is 0.25 µg/mL (≈ 0.206 µM); in data set [9] (setting [15]), 0.25 µg/mL (≈ 0.206 µM); in [9] (Mycobacterium avium, M. avium (SMC#6)), 0.125 µg/mL (≈ 0.103 µM); in data set [9] (Mycobacterium avium, M. avium (SMC#1637)) it was 0.125 µg/mL (≈ 0.103 µM); in [10] (M. intracellulare (AMC#24), 23S rRNA A2058/A2059 G/A), 0.125 µg/mL (≈ 0.103 µM); in [10] (M. intracellulare (SMC#104), 23S rRNA A2058/A2059 G/A), 0.125 µg/mL (≈ 0.103 µM). In addition, the minimum inhibitory concentration (MIC) in data set [10] (M. intracellulare (SMC#414), 23S rRNA A2058/A2059 A/G) turned out to be 0.125 µg/mL (≈ 0.103 µM); in data set [11] (M. intracellulare (SMC#9)), 0.125 µg/mL (≈ 0.103 µM); in data set [11] (M. intracellulare (SMC#831)), 0.125 µg/mL (≈ 0.103 µM); in [11] (M. intracellulare (SMC#2087)) it was 0.125 µg/mL (≈ 0.103 µM); in [11] (Mycobacterium intracellulare), 0.125 µg/mL (≈ 0.103 µM); in [11] (setting [16]) it was 0.25 µg/mL (≈ 0.206 µM). Besides, the MIC in data set [11] (setting [17]), in data set [11] (setting [18]) and in data set [11] (setting [19]) was 0.25 µg/mL (≈ 0.206 µM) each time.
The compound `C/C=C(\NC(=O)c1csc(-c2csc(-c3ccc4c(n3)-c3csc(n3)[C@H]([C@@H](C)O)NC(=O)c3csc(n3)[C@H](C(C)C)NC(=O)c3csc(n3)/C(=C/C)NC(=O)[C@H]([C@@H](C)O)NC(=O)c3csc-4n3)n2)n1)C(=O)NCC(C)=O` [MP2, micrococcin P2, reference compound] displayed a solubility at 2 h in data set [2] of 0.07 µg/mL (≈ 0.0613 µM). Besides, the minimal inhibitory concentration (MIC) in data set [12] was 0.125 to 0.5 µg/mL (≈ 0.109 to 0.438 µM); in data set [9] (M. avium (SMC#6)) it was 0.125 µg/mL (≈ 0.109 µM); in data set [9] (M. avium (SMC#7)), 0.125 µg/mL (≈ 0.109 µM); in data set [9] (M. avium (SMC#1637)), 0.125 µg/mL (≈ 0.109 µM); in [9] (Mycobacterium avium) it was 0.125 µg/mL (≈ 0.109 µM); in [9] (setting [15]) it was 0.125 µg/mL (≈ 0.109 µM). The minimum inhibitory concentration (MIC) in [11] (setting [16]) was 0.125 µg/mL (≈ 0.109 µM); in data set [11] (Mycobacterium intracellulare, M. intracellulare (SMC#7)) it was 0.125 µg/mL (≈ 0.109 µM); in data set [11] (setting [17]) it was 0.125 µg/mL (≈ 0.109 µM); in data set [11] (Mycobacterium intracellulare, M. intracellulare (SMC#9)), 0.125 µg/mL (≈ 0.109 µM); in data set [11] (setting [18]) it was 0.125 µg/mL (≈ 0.109 µM); in data set [11] (setting [19]), 0.125 µg/mL (≈ 0.109 µM). Moreover, the MIC in data set [11] (Mycobacterium intracellulare, M. intracellulare (SMC#831)) was determined as 0.125 µg/mL (≈ 0.109 µM); in data set [11] (Mycobacterium intracellulare, M. intracellulare (SMC#2087)) it was 0.125 µg/mL (≈ 0.109 µM). In addition, the “intracellular activity (CFU) in BMDMs” value in data set [13] and in data set [14] was “ineffective” throughout. Further, the “intracellular growth of MAC in BMDMs” value in [3] is reported as “completely abrogated”. Moreover, the Cell viability result in data set [7] is listed as “decreased”.
